Data reported in US6025471A, “Diazaspiro, azepino and azabicyclo therapeutic peptides” (priority 1998, dated 2000).
Where a SMILES comes first, the peptide text is derived from it. [ ]: non-standard residue; d: D form. dTrp(2-Me) = Cc1[nH]c2ccccc2c1C[C@@H](N)C(=O)O

Legend:
[1] = test system: growth hormone deficient rats; conditions: cited from earlier work
human heart membranes = experiment: binding of peptides on human heart membranes (displacement of radiolabelled peptide); conditions: FIG. 1
From the text: The binding abilities of certain peptides according to the invention compared to conventional peptides on human heart membranes are shown in FIG. 1. […]
Peptide A is in accordance with the invention, while peptides B-F are comparative. As shown in the figure, peptide A provided inhibition (i.e., displacement) of ^125 I-Tyr-Ala-His-D-Mrp-Ala-Trp-D-Phe-Lys-NH2 in a proportion of about 75%, whereas peptides B-F only provided about 5 to less than 35%. The greater binding affinities for the peptides of the invention illustrate that these peptides directly operate on specific receptors of heart tissue to achieve normalization of cardiac pressure.

inhibition (i.e., displacement) of 125I-Tyr-Ala-His-D-Mrp-Ala-Trp-D-Phe-Lys-NH2 (human heart membranes)	Compound	effect on worsening of cardiac dysfunction [1]
	Cc1[nH]c2ccccc2c1C[C@@H](NC(=O)[C@@H](N)Cc1cnc[nH]1)C(=O)N[C@@H](C)C(=O)N[C@@H](Cc1c[nH]c2ccccc12)C(=O)N[C@H](Cc1ccccc1)C(=O)N[C@@H](CCCCN)C(N)=O [Hexarelin, His-D-2-methyl-Trp-Ala-Trp-D-Phe-Lys-NH2] (H-H[dTrp(2-Me)]AW[dF]K-NH2)	reverse the worsening of cardiac dysfunction
about 75%	[S,S-Spiro(Pro-Leu )]-D-Mrp-D-Trp-Phe-Lys-NH2 [peptide A]	
